What was measured:
HIF-2α [1] = target: T1, HIF-2α (Homo sapiens, UniProt Q99814); experiment: HIF-2α Luciferase Reporter Assay (serum), HRE-luciferase 786-0 cells in 100% human serum; type: cell-based; conditions: for IC50: 100% human serum, 786-0 reporter cells, overnight incubation, read-out: Serum Potency; for Serum Shift (approximate): ratio of IC50 in 100% serum to IC50 in serum free conditions
Experimental: (§1) Generation of HIF-2α Luciferase 786-0 Cell Line:
(§2) Stable cell lines were generated by transducing 786-0 cells (ATCC, CRL-1932) with Cignal Lenti HIF Luc Reporter lentivirus (CLS-007L, Qiagen) according to the manufacturer's guidelines. In brief, 0.3×10^6 786-0 cells were transduced with lentivirus at a multiplicity of infection (MOI) of 25 for 24 hours. After transduction, cells were replenished with fresh RPMI 1640 Medium (Cat. No. 11875085, Thermo Fisher) supplemented with 10% FBS (Cat. No. A3160502, Gibco), 2 mM GlutaMAX™ (Cat. No. 35050-061, Invitrogen) and 100 units of penicillin and 100 μg of streptomycin/mL (Cat. No 15070063, Thermo Fisher) for another 24 hours. Antibiotic selection was performed in cell media containing 4 μg/mL of puromycin. After 7 days of antibiotic selection, stable pools of surviving cells were expanded and used in a luciferase reporter assay.
HIF-2α Luciferase Reporter Assay (Serum):
An HRE-luciferase stable reporter 786-0 cell line was maintained in active culture using RPMI 1640 (GIBCO) media supplemented with 1% penicillin-streptomycin, 1% GlutaMAX™, 10% FBS-One Shot (GIBCO) and 4 ug/ml of puromycin (Invitrogen). On the day of the assay, cells were harvested using StemPro™ Accutase™ cell dissociation reagent (GIBCO) and resuspended at 1.5 million cells per milliliter in Opti-MEM™ (GIBCO). 20 ul/well of the resuspended cells were dispensed into a 384 white tissue culture-treated microplate (Corning) and allowed to incubate at 37° C., 5% CO2 for 3 hours. Compounds were prepared by dispensing 0.8 ul of compound in 100% DMSO into a Greiner plate containing 40 ul/well of 100% human serum (Bioreclamation IVT). After 3 hours, media was removed via centrifugation at 500 RPM for 30 seconds and 30 ul/well of compound diluted in human serum was added. The plate was incubated overnight at 37° C., 5% CO2. The following day, ONE-Glo™ was prepared per vendors instructions. The cell plate was removed from the incubator and the human serum was removed from the plate using centrifugation at 500 RPM for 30 seconds. Following the removal of human serum, 40 ul/well of room temperature Opti-MEM™ was added to the plate and allowed to equilibrate to room temperature for 2 hours. 40 ul/well of ONE-Glo™ reagent was added and allowed to incubate for 10 minutes before reading the luminescence signal on the Envision (PerkinElmer). Data was analyzed using 4-parameter logistic equation to generate IC50.

HIF-2α [2] = target: T1, HIF-2α; experiment: HIF-2α Luciferase Reporter Assay (serum free) in HIF-Luc-786-0 cells; type: cell-based; conditions: Opti-MEM, 786-0 reporter cells, 20 hours incubation
Experimental: as §1, §2
HIF-2α Luciferase Reporter Assay (Serum Free):
On day one, 20 uL of HIF-Luc-786-0 cells in Opti-MEM™ (Cat. No. 31985088, Thermo Fisher) were seeded into each well of a 384 well white opaque plate (Corning 3570) and incubated at 37° C. and 5% CO2. Twenty microliters of 2× test compounds in Opti-MEM™ were added to cells after 4 hours of incubation. Final assay conditions comprised 20,000 cells per well in 1% DMSO with test compound concentrations ranging from 50 uM to 0 uM. After 20 hours incubation at 37° C. and 5% CO2, luciferase activity was determined using ONE-Glo™ Luciferase Assay Reagent (E6110, Promega) following the manufacture's recommended procedure. Briefly, 40 uL of ONE-Glo™ luciferase reagents were added to each well and luciferase signals were measured using an Envision 2102 Multilabel Reader. Percentage maximum activity in each test well was calculated based on DMSO (maximum activity) and no cell control wells (baseline activity). The IC50 values of the test compounds were determined from compound dose response curves fitted using a standard four parameter fit equation.

T1 sequence (Q99814 whole entry): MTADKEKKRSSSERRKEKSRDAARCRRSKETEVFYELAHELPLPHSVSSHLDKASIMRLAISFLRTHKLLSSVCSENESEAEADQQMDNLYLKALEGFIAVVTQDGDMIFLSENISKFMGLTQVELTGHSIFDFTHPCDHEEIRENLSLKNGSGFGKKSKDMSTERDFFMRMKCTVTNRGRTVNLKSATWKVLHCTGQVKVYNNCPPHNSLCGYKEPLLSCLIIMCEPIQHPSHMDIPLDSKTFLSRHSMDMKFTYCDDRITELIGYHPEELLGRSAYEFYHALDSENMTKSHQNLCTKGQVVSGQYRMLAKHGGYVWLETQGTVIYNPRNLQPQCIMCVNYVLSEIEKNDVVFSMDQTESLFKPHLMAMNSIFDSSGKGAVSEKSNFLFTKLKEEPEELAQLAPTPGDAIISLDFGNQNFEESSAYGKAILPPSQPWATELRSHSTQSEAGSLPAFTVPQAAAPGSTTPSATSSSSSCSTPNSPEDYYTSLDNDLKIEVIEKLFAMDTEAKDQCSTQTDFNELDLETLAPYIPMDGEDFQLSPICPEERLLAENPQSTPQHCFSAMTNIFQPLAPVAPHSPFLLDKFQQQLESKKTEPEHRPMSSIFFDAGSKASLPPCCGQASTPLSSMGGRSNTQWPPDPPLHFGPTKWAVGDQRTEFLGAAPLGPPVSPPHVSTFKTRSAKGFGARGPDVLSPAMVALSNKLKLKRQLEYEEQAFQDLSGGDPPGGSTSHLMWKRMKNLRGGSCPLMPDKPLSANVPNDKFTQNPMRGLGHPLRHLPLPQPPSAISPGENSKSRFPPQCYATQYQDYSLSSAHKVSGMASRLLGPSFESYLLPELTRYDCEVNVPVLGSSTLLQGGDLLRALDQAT

Row | Compound | IC50 (HIF-2α [1]) | Serum Shift (approximate) (HIF-2α [1]) | IC50 (HIF-2α [2])
1 | O[C@H]1c2c(C(F)(F)F)nn([C@H]3CC[C@H](OC(F)F)C3)c2CC1(F)F (racemic) [Example 110, (4S)-1-[(1R,3R)-3-(difluoromethoxy)cyclopentyl]-5,5-difluoro-3-(trifluoromethyl)-1H,4H,5H,6H-cyclopenta[c]pyrazol-4-ol and (4S)-1-[(1S,3S)-3-(difluoromethoxy)cyclopentyl]-5,5-difluoro-3-(trifluoromethyl)-1H,4H,5H,6H-cyclopenta[c]pyrazol-4-ol] | > 1000 nM | 225 | < 100 nM
2 | O[C@H]1c2c(C(F)(F)F)nn(CCCC(F)(F)F)c2CC[C@@H]1F [Example 52, (4S,5S)-5-fluoro-1-(4,4,4-trifluorobutyl)-3-(trifluoromethyl)-4,5,6,7-tetrahydroindazol-4-ol] | > 1000 nM | 7 | 100 to 1000 nM
3 | O[C@H]1c2c(C(F)(F)F)nn([C@@H]3COCC(F)(F)C3)c2CC1(F)F [Example 87, (4S)-1-[(3S)-5,5-difluorooxan-3-yl]-5,5-difluoro-3-(trifluoromethyl)-1H,4H,5H,6H-cyclopenta[c]pyrazol-4-ol] | > 1000 nM | 7 | 100 to 1000 nM
4 | O=S1(=O)CCCC(n2nc(C(F)(F)F)c3c2CC(F)(F)[C@H]3O)C1 (stereo partly drawn) [Example 86, 3-[(4S)-5,5-difluoro-4-hydroxy-3-(trifluoromethyl)-1H,4H,5H,6H-cyclopenta[c]pyrazol-1-yl]-1λ^6-thiane-1,1-dione] | 100 to 1000 nM | 3 | 100 to 1000 nM
5 | CO[C@H](CCn1nc(C(F)(F)F)c2c1CC(F)(F)[C@H]2O)C(F)(F)F [Example 61, (4S)-5,5-difluoro-1-[(3R)-4,4,4-trifluoro-3-methoxybutyl]-3-(trifluoromethyl)-4,6-dihydrocyclopenta[c]pyrazol-4-ol] | < 100 nM |  | < 100 nM
6 | O[C@H]1c2c(C(F)(F)F)nn(-c3ccc(F)c(F)c3)c2CC1(F)F [Example 115] | > 1000 nM | 45 | 100 to 1000 nM
7 | O[C@H]1c2c(C(F)(F)F)nn([C@H]3CCO[C@@H](C(F)(F)F)C3)c2[C@@H](F)[C@H]1F (single isomer, unassigned) [150/151 DIAST-1] | > 1000 nM | 5 | 100 to 1000 nM
8 | CCC(CCn1nc(C(F)(F)F)c2c1CCC(F)(F)[C@H]2O)C(F)(F)F (stereo partly drawn) [Example 43, (4S)-5,5-difluoro-3-(trifluoromethyl)-1-[3-(trifluoromethyl)pentyl]-6,7-dihydro-4H-indazol-4-ol] | > 1000 nM | 17 | 100 to 1000 nM
9 | O[C@H]1c2c(C(F)(F)F)nn(-c3ccc(Cl)c(Cl)c3)c2CC1(F)F [Example 118, (4S)-1-(3,4-dichlorophenyl)-5,5-difluoro-3-(trifluoromethyl)-4,6-dihydrocyclopenta[c]pyrazol-4-ol] | > 1000 nM | 119 | < 100 nM

Continued, values first:

Row | IC50 (HIF-2α [1]) | Serum Shift (approximate) (HIF-2α [1]) | IC50 (HIF-2α [2]) | Compound
10 | > 1000 nM | 9 | 100 to 1000 nM | O[C@H]1c2c(C(F)(F)F)nn([C@H]3C[C@@H](F)[C@@H](F)[C@@H](F)C3)c2[C@@H](F)[C@H]1F [Example 143, (4S,5S,6R)-5,6-difluoro-1-[(3R,5S)-3,4,5-trifluorocyclohexyl]-3-(trifluoromethyl)-5,6-dihydro-4H-cyclopenta[c]pyrazol-4-ol]
11 | > 1000 nM | 17 | 100 to 1000 nM | O[C@H]1c2c(C(F)(F)F)nn([C@H]3C[C@H](COC(F)F)C3)c2CC1(F)F [Example 102, (4S)-1-[3-(difluoromethoxymethyl)cyclobutyl]-5,5-difluoro-3-(trifluoromethyl)-4,6-dihydrocyclopenta[c]pyrazol-4-ol]
12 | > 1000 nM | 9 | < 100 nM | O[C@H]1c2c(C(F)(F)F)nn([C@H]3CC[C@@H](F)[C@@H](F)C3)c2CC1(F)F (racemic) [91 DIAST-2, (4S)-1-[(rel-1S,3S,4R)-3,4-difluorocyclohexyl]-5,5-difluoro-3-(trifluoromethyl)-4,6-dihydrocyclopenta[c]pyrazol-4-ol]
13 | > 1000 nM | 3 | 100 to 1000 nM | C[C@H](C#N)CCn1nc(C(F)(F)F)c2c1C[C@@H](F)[C@H]2O [Example 83, (2S)-4-[(4S,5R)-5-fluoro-4-hydroxy-3-(trifluoromethyl)-1H,4H,5H,6H-cyclopenta[c]pyrazol-1-yl]-2-methylbutanenitrile]
14 | 100 to 1000 nM | 9 | < 100 nM | O[C@@H]1c2c(C(F)(F)F)nn([C@H]3CC[C@H](F)[C@H](F)C3)c2[C@H](F)C1(F)F (single isomer, unassigned) [Example 154]
15 | > 1000 nM | 6 | 100 to 1000 nM | O[C@H]1c2c(C(F)(F)F)nn(C3COCC(F)(F)C3)c2CC1(F)F (stereo partly drawn) [Example 85, (4S)-1-(5,5-difluorooxan-3-yl)-5,5-difluoro-3-(trifluoromethyl)-1H,4H,5H,6H-cyclopenta[c]pyrazol-4-ol]
16 | > 1000 nM | 13 | < 100 nM | O[C@H]1c2c(C(F)(F)F)nn(C3CC4(C3)CC(F)(F)C4)c2[C@@H](F)[C@@H]1F (single isomer, unassigned) [Example 134]
17 | 100 to 1000 nM | 4 | 100 to 1000 nM | O[C@H]1c2c(C(F)(F)F)nn(CCSC(F)F)c2CCC1(F)F [Example 18, (4S)-1-[2-(difluoromethylsulfanyl)ethyl]-5,5-difluoro-3-(trifluoromethyl)-6,7-dihydro-4H-indazol-4-ol]
18 | > 1000 nM | 6 | < 100 nM | O[C@H]1c2c(C(F)(F)F)nn([C@H]3CCC(F)(F)[C@H](F)C3)c2CC1(F)F [Example 122, (4S)-5,5-difluoro-1-[(1S,3R)-3,4,4-trifluorocyclohexyl]-3-(trifluoromethyl)-4,6-dihydrocyclopenta[c]pyrazol-4-ol]
19 | > 1000 nM | >62 | < 100 nM | O[C@H]1c2c(C(F)(F)F)nn(-c3ccc(C(F)(F)F)cc3)c2CC1(F)F [Example 117, (4S)-5,5-difluoro-3-(trifluoromethyl)-1-[4-(trifluoromethyl)phenyl]-4,6-dihydrocyclopenta[c]pyrazol-4-ol]
20 | > 1000 nM | 2 | 100 to 1000 nM | O=S1(=O)CC(Cn2nc(C(F)(F)F)c3c2C[C@@H](F)[C@H]3O)C1 [Example 84, 3-{[(4S,5R)-5-fluoro-4-hydroxy-3-(trifluoromethyl)-1H,4H,5H,6H-cyclopenta[c]pyrazol-1-yl]methyl}-1λ^6-thietane-1,1-dione]
21 | > 1000 nM | 17 | 100 to 1000 nM | O[C@H]1c2c(C(F)(F)F)nn(CCc3ccsc3)c2CC1(F)F [Example 76, (4S)-5,5-difluoro-1-(2-thiophen-3-ylethyl)-3-(trifluoromethyl)-4,6-dihydrocyclopenta[c]pyrazol-4-ol]
22 | > 1000 nM | 4 | 100 to 1000 nM | [O-][S+](CCn1nc(C(F)(F)F)c2c1CCC(F)(F)[C@H]2O)C(F)F (stereo partly drawn) [Example 128, (4S)-1-[2-(difluoromethylsulfinyl)ethyl]-5,5-difluoro-3-(trifluoromethyl)-6,7-dihydro-4H-indazol-4-ol]
23 | > 1000 nM | 17 | < 100 nM | O[C@H]1c2c(C(F)(F)F)nn([C@H]3CCO[C@@H](C(F)(F)F)C3)c2CC1(F)F (single isomer, unassigned) [94/95 DIAST-1]

Reference: US12071411B2, “Inhibitors of HIF-2α and methods of use thereof” (ARCUS BIOSCIENCES, INC., priority 2021, dated 2024)
